# Results reported in ChEMBL document CHEMBL5634163, “Anti-Ferroptotic Effect of Cannabidiol in Human Skin Keratinocytes Characterized by Data-Independent Acquisition-Based Proteomics” (J Nat Prod, 2024).
# Active and inactive are the calls of the source. The rule behind the calls is not given here.
# Legend:
# HaCaT [1] = experiment: Anti-ferroptotic effect against erastin-induced cytotoxicity in human HaCaT cells assessed as cell viability at 10 uM preincubated for 4 hrs followed by erastin addition measured after 24 hrs by MTT assay relative to control; assay type: functional; details: for Activity: time 28.0 hrs; for viability at 10 µM: time 28 hrs, read-out: Activity
# [2] = Antioxidant activity assessed as free radical scavenging activity at 100 uM incubated for 30 mins in dark by DPPH assay relative to control; assay type: functional
# [3] = Iron-chelating activity of compound at 500 uM incubated for 10 mins by absorbance based assay relative to control; assay type: functional
# [4] = Antioxidant activity assessed as free radical scavenging activity incubated for 30 mins in dark by DPPH assay; assay type: functional
# HaCaT [5] = experiment: Reversal of erastin-induced ROS level in human HaCaT cells at 10 uM preincubated for 24.5 hrs followed by erastin addition measured after 4 hrs by DC-FDA probe based assay (reference value: 23 %); assay type: functional; details: time 28.5 hrs
# HaCaT [6] = experiment: Reversal of erastin-induced lipid peroxidation in human HaCaT cells at 10 uM preincubated for 4 hrs followed by erastin addition measured after 24 hrs by flow cytometry (reference value: 47 %); assay type: functional; details: time 28 hrs
# HaCaT [7] = experiment: Suppression of erastin-induced intracellular Fe2+ level in human HaCaT cells at 10 uM preincubated for 24 hrs followed by erastin addition measured after 24 hrs by FerroOrange probe based assay (reference value: 25 %); assay type: functional; details: time 48 hrs
# HaCaT [8] = experiment: Reversal of erastin-induced iron level in human HaCaT cells at 10 uM preincubated for 24 hrs followed by erastin addition measured after 24 hrs by FerroOrange probe based assay (reference value: 43 %); assay type: functional; details: time 48 hrs
# HaCaT [9] = experiment: Anti-ferroptotic effect against erastin-induced cytotoxicity in human HaCaT cells assessed as cell viability at 0.08 uM preincubated for 4 hrs followed by erastin addition measured after 24 hrs by MTT assay (reference value: 23 %); assay type: functional; details: time 28 hrs, read-out: Activity
# HaCaT [10] = experiment: Anti-ferroptotic effect against erastin-induced cytotoxicity in human HaCaT cells assessed as cell viability at 0.16 uM preincubated for 4 hrs followed by erastin addition measured after 24 hrs by MTT assay (reference value: 23 %); assay type: functional; details: time 28 hrs, read-out: Activity
# HaCaT [11] = experiment: Anti-ferroptotic effect against erastin-induced cytotoxicity in human HaCaT cells assessed as cell viability at 0.31 uM preincubated for 4 hrs followed by erastin addition measured after 24 hrs by MTT assay (reference value: 23 %); assay type: functional; details: time 28 hrs, read-out: Activity
# HaCaT [12] = experiment: Anti-ferroptotic effect against erastin-induced cytotoxicity in human HaCaT cells assessed as cell viability at 0.63 uM preincubated for 4 hrs followed by erastin addition measured after 24 hrs by MTT assay (reference value: 23 %); assay type: functional; details: time 28 hrs, read-out: Activity
# HaCaT [13] = experiment: Anti-ferroptotic effect against erastin-induced cytotoxicity in human HaCaT cells assessed as cell viability at 1.25 uM preincubated for 4 hrs followed by erastin addition measured after 24 hrs by MTT assay (reference value: 23 %); assay type: functional; details: time 28 hrs, read-out: Activity
# HaCaT [14] = experiment: Anti-ferroptotic effect against erastin-induced cytotoxicity in human HaCaT cells assessed as cell viability at 2.5 uM preincubated for 4 hrs followed by erastin addition measured after 24 hrs by MTT assay (reference value: 23 %); assay type: functional; details: time 28 hrs, read-out: Activity
# HaCaT [15] = experiment: Anti-ferroptotic effect against erastin-induced cytotoxicity in human HaCaT cells assessed as cell viability at 5 uM preincubated for 4 hrs followed by erastin addition measured after 24 hrs by MTT assay (reference value: 23 %); assay type: functional; details: time 28 hrs, read-out: Activity
# HaCaT [16] = experiment: Anti-ferroptotic effect against erastin-induced cytotoxicity in human HaCaT cells assessed as cell viability at 10 uM preincubated for 4 hrs followed by erastin addition measured after 24 hrs by MTT assay (reference value: 23 %); assay type: functional; details: time 28 hrs, read-out: Activity
# HaCaT [17] = experiment: Reversal of erastin-induced ROS level in human HaCaT cells at 0.6 uM preincubated for 24.5 hrs followed by erastin addition measured after 4 hrs by DC-FDA probe based assay (reference value: 23 %); assay type: functional; details: time 28.5 hrs
# HaCaT [18] = experiment: Reversal of erastin-induced ROS level in human HaCaT cells at 2.5 uM preincubated for 24.5 hrs followed by erastin addition measured after 4 hrs by DC-FDA probe based assay (reference value: 23 %); assay type: functional; details: time 28.5 hrs
# HaCaT [19] = experiment: Reversal of erastin-induced lipid peroxidation in human HaCaT cells at 0.6 uM preincubated for 4 hrs followed by erastin addition measured after 24 hrs by flow cytometry (reference value: 47 %); assay type: functional; details: time 28 hrs
# HaCaT [20] = experiment: Reversal of erastin-induced lipid peroxidation in human HaCaT cells at 2.5 uM preincubated for 4 hrs followed by erastin addition measured after 24 hrs by flow cytometry (reference value: 47 %); assay type: functional; details: time 28 hrs
# HaCaT [21] = experiment: Suppression of erastin-induced intracellular Fe2+ level in human HaCaT cells at 0.6 uM preincubated for 24 hrs followed by erastin addition measured after 24 hrs by FerroOrange probe based assay (reference value: 25 %); assay type: functional; details: time 48 hrs
# HaCaT [22] = experiment: Suppression of erastin-induced intracellular Fe2+ level in human HaCaT cells at 2.5 uM preincubated for 24 hrs followed by erastin addition measured after 24 hrs by FerroOrange probe based assay (reference value: 25 %); assay type: functional; details: time 48 hrs
# HaCaT [23] = experiment: Reversal of erastin-induced iron level in human HaCaT cells at 2.5 uM preincubated for 24 hrs followed by erastin addition measured after 24 hrs by FerroOrange probe based assay (reference value: 43 %); assay type: functional; details: time 48 hrs
# HaCaT [24] = experiment: Effect on GSH level in human HaCaT cells at 2.5 uM; assay type: functional, cell-based
# HaCaT [25] = experiment: Reversal of erastin-induced FXR2 level in human HaCaT cells; assay type: functional, cell-based
# HaCaT [26] = experiment: Reversal of erastin-induced LIG3 level in human HaCaT cells; assay type: functional, cell-based
# HaCaT [27] = experiment: Reversal of erastin-induced DDX60 level in human HaCaT cells; assay type: functional, cell-based
# HaCaT [28] = experiment: Reversal of erastin-reduced RPL7A level in human HaCaT cells; assay type: functional, cell-based
# HaCaT [29] = experiment: Reversal of erastin-reduced CSNK2B level in human HaCaT cells; assay type: functional, cell-based
# HaCaT [30] = experiment: Reversal of erastin-reduced LGALS3 level in human HaCaT cells; assay type: functional, cell-based
smiles,measurement,setting,value
CC1=C(/C=C/C(C)=C/C=C/C(C)=C/CO)C(C)(C)CCC1,Activity,HaCaT [1],inactive
same,Activity,[2],18%
same,Activity,[3],87%
O=c1c(O)c(-c2ccc(O)c(O)c2)oc2cc(O)ccc12 [FISETIN],viability at 10 µM,HaCaT [1],37%
same,IC50,[4],10.1 µM
same,Activity,[3],60%
same,Activity,HaCaT [5],11%
same,Activity,HaCaT [6],40%
same,Activity,HaCaT [7],32%
same,Activity,HaCaT [8],14%
C=C(C)[C@@H]1CCC(C)=C[C@H]1c1c(O)cc(CCCCC)cc1O [CANNABIDIOL],viability at 0.08 µM,HaCaT [9],29%
same,viability at 0.16 µM,HaCaT [10],36%
same,viability at 0.31 µM,HaCaT [11],45%
same,viability at 0.63 µM,HaCaT [12],52%
same,viability at 1.25 µM,HaCaT [13],67%
same,viability at 2.5 µM,HaCaT [14],74%
same,viability at 5 µM,HaCaT [15],71%
same,viability at 10 µM,HaCaT [16],68%
same,viability at 10 µM,HaCaT [1],76%
same,IC50,[4],33.3 µM
same,Activity,[3],< 5%
same,Activity,HaCaT [17],10%
same,Activity,HaCaT [18],14%
same,Activity,HaCaT [5],26%
same,Activity,HaCaT [19],39%
same,Activity,HaCaT [20],44%
same,Activity,HaCaT [6],40%
same,Activity,HaCaT [21],10%
same,Activity,HaCaT [22],12%
same,Activity,HaCaT [23],15%
same,Activity,HaCaT [8],17%
same,Activity,HaCaT [24],inactive
same,Activity,HaCaT [25],Active
same,Activity,HaCaT [26],Active
same,Activity,HaCaT [27],Active
same,Activity,HaCaT [28],Active
same,Activity,HaCaT [29],Active
same,Activity,HaCaT [30],Active
CCOC(=O)c1ccc(NC2CCCCC2)c(N)c1,viability at 10 µM,HaCaT [16],66%
O=C1O[C@H]([C@@H](O)CO)C(O)=C1O [ASCORBIC ACID],Activity,HaCaT [1],inactive
same,IC50,[4],15.9 µM
same,Activity,[3],< 5%
